What was measured:
Assay in all cases: Cell viability (CCK8) cell kill assay
MMT/hEGFRvIII = type: cell-based, human
Procedure: (§1) All cells were generated via lipofectamine 2000 based methodologies and were cultured in complete growth media in the presence of G418.
(§2) Next, the ability of anti-human EGFRvIII antibodies conjugated to the maytansine toxin DM1 to reduce cell viability was determined using in vitro cell based assays. Cells were seeded in PDL-coated 96 well plates at 250-2000 cells per well in complete growth media and allowed to grow overnight. For cell viability curves, ADCs or free drug (DM1-SMe) was added to cells at final concentrations ranging from 500 nM to 5 μM and incubated for 3 days. […] Background OD450 levels from digitonin (40 nM) treated cells was subtracted from all wells and viability is expressed as a percentage of the untreated controls. IC50 values were determined from a four-parameter logistic equation over a 10-point response curve (Graph Pad Prism). IC50 values are in nM and are normalized for the particular drug/antibody ratio (DAR).

HEK293/hEGFRwt = type: cell-based, human; conditions: Table 18A
Procedure: as §1, §2

HEK293/hEGFRvIII = type: cell-based, human
Procedure: as §1, §2

U251/hEGFRvIII = type: cell-based, human; conditions: Table 18B
Procedure: as §1, §2

U251 = type: cell-based; conditions: Table 18A
Procedure: (§3) Next, the ability of anti-human EGFRvIII antibodies conjugated to the maytansine toxin DM1 to reduce cell viability was determined using in vitro cell based assays. Cells were seeded in PDL-coated 96 well plates at 250-2000 cells per well in complete growth media and allowed to grow overnight. For cell viability curves, ADCs or free drug (DM1-SMe) was added to cells at final concentrations ranging from 500 nM to 5 μM and incubated for 3 days. Cells were incubated with CCK8 (Dojindo) for the final 1-3 h and the absorbance at 450 nm (OD450) was determined on the Flexstation3 (Molecular Devices). Background OD450 levels from digitonin (40 nM) treated cells was subtracted from all wells and viability is expressed as a percentage of the untreated controls. IC50 values were determined from a four-parameter logistic equation over a 10-point response curve (Graph Pad Prism). IC50 values are in nM and are normalized for the particular drug/antibody ratio (DAR).

HEK293 = type: cell-based
Procedure: as §3

MMT = type: cell-based
Procedure: as §3

[1] = Table 20, MMT/hEGFRvIII, single ADC or 1:1 pairwise combination
[2] = Table 19, HEK293/hEGFRvIII (high)
[3] = Table 20, HEK293/hEGFRvIII, single ADC or 1:1 pairwise combination
[4] = Table 20, HEK293, single ADC or 1:1 pairwise combination
[5] = Table 20, MMT, single ADC or 1:1 pairwise combination

With DM1-SMe the “% Kill” value (MMT/hEGFRvIII; Table 18B, MMT/hEGFRvIII) was 100%, the IC50 (MMT/hEGFRvIII; Table 18B, MMT/hEGFRvIII, 3 days, normalized for DAR) was 0.7 nM and the “% Kill” value (MMT/hEGFRvIII; Table 19, MMT/hEGFRvIII (high)) was 99%. For the same substance, the IC50 (MMT/hEGFRvIII; Table 19, MMT/hEGFRvIII (high)) was 0.18 nM, the “% Kill” value (MMT/hEGFRvIII; [1]) was 100% and the IC50 (MMT/hEGFRvIII; [1]) was 0.19 nM. For the same substance, the “% Kill” value (HEK293/hEGFRwt) was 95%, the IC50 (HEK293/hEGFRwt; 3 days, normalized for DAR) was 0.57 nM and the “% Kill” value (HEK293/hEGFRvIII; Table 18A, HEK293/hEGFRvIII) was 99%. The IC50 (HEK293/hEGFRvIII; Table 18A, HEK293/hEGFRvIII, 3 days, normalized for DAR) was 0.6 nM, the “% Kill” value (HEK293/hEGFRvIII; [2]) was 99% and the IC50 (HEK293/hEGFRvIII; [2]) was 0.25 nM. For the same substance, the “% Kill” value (HEK293/hEGFRvIII; [3]) was 97%, the IC50 (HEK293/hEGFRvIII; [3]) was 0.28 nM and the “% Kill” value (U251/hEGFRvIII) was 83%. The IC50 (U251/hEGFRvIII; 3 days, normalized for DAR) was 1.2 nM, the “% Kill” value (U251; U251) was 81% and the IC50 (U251; U251, 3 days, normalized for DAR) was 1.8 nM. For the same substance, the “% Kill” value (HEK293; Table 18A, HEK293) was 97%, the IC50 (HEK293; Table 18A, HEK293, 3 days, normalized for DAR) was 0.31 nM and the “% Kill” value (HEK293; Table 19, HEK293) was 98%. For the same substance, the IC50 (HEK293; Table 19, HEK293) was 0.19 nM, the “% Kill” value (HEK293; [4]) was 96% and the IC50 (HEK293; [4]) was 0.21 nM. For the same substance, the “% Kill” value (MMT; Table 18B, MMT) was 96%, the IC50 (MMT; Table 18B, MMT, 3 days, normalized for DAR) was 0.6 nM and the “% Kill” value (MMT; Table 19, MMT) was 100%. For the same substance, the IC50 (MMT; Table 19, MMT) was 0.15 nM, the “% Kill” value (MMT; [5]) was 100% and the IC50 (MMT; [5]) was 0.19 nM.

— patent publication US11608380B2, “Anti-EGFRvIII antibodies and uses thereof” (REGENERON PHARMACEUTICALS, INC., priority 2014, dated 2023)
